Test results from PubChem BioAssay (NCI).
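Grown in 96-well plates, cells were treated for 48 hours with each compound at five concentrations. Insufficient inhibition: endpoint recorded as highest concentration tested. Here, GI50 denotes the concentration required for 50% inhibition of growth. TGI: concentration producing complete growth inhibition.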

Legend:
Test in all cases: NCI-60 cell line screen, 48 h
[1] = test system: 786-0 renal
[2] = test system: BT-549 breast
[3] = test system: DU-145 prostate
[4] = test system: EKVX NSCLC
[5] = test system: HCC-2998 colon
[6] = test system: HOP-92 NSCLC
[7] = test system: HT29 colon
[8] = test system: KM12 colon
[9] = test system: LOX IMVI melanoma
[10] = test system: M14 melanoma
[11] = test system: MALME-3M melanoma
[12] = test system: MDA-MB-435
[13] = test system: NCI-H226 lung
[14] = test system: OVCAR-3 ovarian
[15] = test system: OVCAR-4 ovarian
[16] = test system: OVCAR-5 ovarian
[17] = test system: OVCAR-8 ovarian
[18] = test system: RXF 393 renal
[19] = test system: SK-MEL-2 melanoma
[20] = test system: SK-MEL-28 melanoma
[21] = test system: SK-OV-3 ovarian
[22] = test system: SW-620 colon
[23] = test system: T-47D breast
[24] = test system: TK-10 renal
[25] = test system: UACC-257 melanoma
[26] = test system: A498 renal
[27] = test system: CAKI-1 renal
[28] = test system: CCRF-CEM leukemia
[29] = test system: COLO 205 colon
[30] = test system: HCT-116 colon
[31] = test system: HL-60(TB) leukemia
[32] = test system: HOP-62 NSCLC
[33] = test system: HS 578T breast
[34] = test system: K-562 leukemia
[35] = test system: MCF7 breast
[36] = test system: NCI-H460 lung
[37] = test system: NCI/ADR-RES ovarian
[38] = test system: PC-3 prostate
[39] = test system: SF-268 CNS
[40] = test system: SF-295 CNS
[41] = test system: SK-MEL-5 melanoma
[42] = test system: SN12C renal
[43] = test system: SNB-19 CNS
[44] = test system: SNB-75 CNS
[45] = test system: SR leukemia
[46] = test system: UACC-62 melanoma
[47] = test system: UO-31 renal
[48] = test system: A549 NSCLC
[49] = test system: ACHN renal
[50] = test system: HCT-15 colon
[51] = test system: IGROV1 ovarian
[52] = test system: MDA-MB-231 breast
[53] = test system: MOLT-4 leukemia
[54] = test system: NCI-H23 lung
[55] = test system: NCI-H522 lung
[56] = test system: RPMI-8226 leukemia
[57] = test system: SF-539 CNS
[58] = test system: U251 CNS

SMILES: COc1ccc(OC)c2c3c([nH]c12)C(=O)Nc1nc(N)nc(N)c1C3
- TGI [1]: > 100 µM
- TGI [2]: > 100 µM
- TGI [3]: > 100 µM
- TGI [4]: > 100 µM
- TGI [5]: > 100 µM
- TGI [6]: > 100 µM
- TGI [7]: 4.49 µM
- TGI [8]: > 100 µM
- TGI [9]: > 100 µM
- TGI [10]: > 100 µM
- TGI [11]: > 100 µM
- TGI [12]: > 100 µM
- TGI [13]: > 100 µM
- TGI [14]: > 100 µM
- TGI [15]: > 100 µM
- TGI [16]: > 100 µM
- TGI [17]: > 100 µM
- TGI [18]: > 100 µM
- TGI [19]: > 100 µM
- TGI [20]: > 100 µM
- TGI [21]: > 100 µM
- TGI [22]: > 100 µM
- TGI [23]: > 100 µM
- TGI [24]: > 100 µM
- TGI [25]: > 100 µM

SMILES: CC(C)CCCC(C)[C@H]1CC[C@H]2N=C(NCc3ccccc3)CCC[C@]12C (stereo not given in full)
- TGI [26]: 4.77 µM
- TGI [2]: 8.19 µM
- TGI [27]: 5.65 µM
- TGI [28]: 5.42 µM
- TGI [29]: 2.77 µM
- TGI [30]: > 100 µM
- TGI [31]: 7.63 µM
- TGI [32]: 8.56 µM
- TGI [6]: 5.67 µM
- TGI [33]: 9.48 µM
- TGI [7]: 3.17 µM
- TGI [34]: 3.23 µM
- TGI [35]: 3.29 µM
- TGI [36]: 3.34 µM
- TGI [37]: 3.15 µM
- TGI [14]: 5.33 µM
- TGI [15]: 8.75 µM
- TGI [38]: 4.93 µM
- TGI [18]: 3.14 µM
- TGI [39]: 8.92 µM
- TGI [40]: 3.62 µM
- TGI [20]: 2.96 µM
- TGI [41]: 3.06 µM
- TGI [21]: 20.1 µM
- TGI [42]: 3.62 µM
- TGI [43]: 8.75 µM
- TGI [44]: 3.52 µM
- TGI [45]: 7.84 µM
- TGI [22]: 4.45 µM
- TGI [23]: 8.01 µM
- TGI [24]: 5.45 µM
- TGI [25]: 5.24 µM
- TGI [46]: 3.48 µM
- TGI [47]: 8.29 µM

SMILES: C=C(C)[C@@H]1CC[C@]2(C(=O)OCCOCCOCC[P+](c3ccccc3)(c3ccccc3)c3ccccc3)CC[C@]3(C)[C@H](CC[C@@H]4[C@@]5(C)CC[C@H](OC(=O)C(Cl)Cl)C(C)(C)[C@@H]5CC[C@]43C)[C@@H]12
- GI50 [26]: 0.225 µM
- TGI [26]: 0.734 µM
- GI50 [33]: 0.317 µM
- TGI [33]: 1.88 µM
- GI50 [37]: 1.54 µM
- TGI [37]: 9 µM

SMILES: O=c1c(Cl)cc2nc3ccccc3sc-2c1Cl
- TGI [1]: 45.8 µM
- TGI [26]: 80.7 µM
- TGI [48]: 40.9 µM
- TGI [49]: 30.2 µM
- TGI [2]: 24.6 µM
- TGI [27]: 37.8 µM
- TGI [28]: 43.3 µM
- TGI [29]: 38 µM
- TGI [3]: 25.8 µM
- TGI [4]: 14.9 µM
- TGI [5]: 34.7 µM
- TGI [30]: 32.5 µM
- TGI [50]: 32.3 µM
- TGI [31]: 38.4 µM
- TGI [32]: 46.1 µM
- TGI [33]: > 100 µM
- TGI [7]: 49.2 µM
- TGI [51]: 28.1 µM
- TGI [34]: > 100 µM
- TGI [8]: 38.4 µM
- TGI [9]: 43 µM
- TGI [10]: 37.2 µM
- TGI [11]: 23.6 µM
- TGI [35]: 32.4 µM
- TGI [52]: 21.3 µM
- TGI [12]: 7.8 µM
- TGI [53]: > 100 µM
- TGI [13]: 32.3 µM
- TGI [54]: 28 µM
- TGI [36]: 35.1 µM
- TGI [55]: 25.9 µM
- TGI [37]: 56.9 µM
- TGI [14]: 5.93 µM
- TGI [15]: 27.4 µM
- TGI [16]: 78.9 µM
- TGI [56]: 25.9 µM
- TGI [18]: 32.5 µM
- TGI [39]: 28.5 µM
- TGI [40]: 34.4 µM
- TGI [57]: 30.8 µM
- TGI [19]: 27.1 µM
- TGI [20]: 35.2 µM
- TGI [41]: 13.9 µM
- TGI [21]: 39 µM
- TGI [42]: 31.9 µM
- TGI [43]: 32.9 µM
- TGI [44]: 32.7 µM
- TGI [45]: 30 µM
- TGI [22]: 34.9 µM
- TGI [23]: > 100 µM
- TGI [24]: 33.1 µM
- TGI [58]: 43.2 µM
- TGI [25]: 8.2 µM
- TGI [46]: 24.4 µM
- TGI [47]: 29.1 µM
